Results: patent US12590066B2, “Fused-heterocyclyl-carbonohydrazonoyl dicyanide compounds and use thereof” (KOREA INSTITUTE OF SCIENCE AND TECHNOLOGY, priority 2020, dated 2026)

Tests used:
Tau-BiFC cells = experiment: Cell viability (stained nuclei count) in Tau-BiFC cells; format: cell-based; settings: 10 μM compound, 48 hours; Forskolin-only group = 100% cell viability
How it was run: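 Tau-BiFC cells co-treated 48 h with 30 μM forskolin and compounds (1, 3, 10 μM screen; 0.01–30 μM dose-response). BiFC fluorescence normalized to forskolin-only (100% aggregation) minus untreated gives aggregation inhibition and IC50; viability as Hoechst-stained nuclei count relative to forskolin-only.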

CYP3A4 = target: T1, CYP3A4 (Homo sapiens, UniProt P08684); experiment: Inhibitory effect on CYP coenzyme activity, human liver microsomes; format: in vitro ADME; settings: 10 μM compound, human liver microsomes 0.25 mg/mL, substrate midazolam, 15 minutes
T1 construct: human liver microsomes (0.25 mg/mL); from tissue; host or cells: human liver microsomes
How it was run: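 Activity (% of vehicle control) from LC-MS/MS MRM quantitation of substrate metabolites. HLM 0.25 mg/mL, pH 7.4 phosphate, cocktail of phenacetin 50 μM, diclofenac 10 μM, S-mephenytoin 100 μM, dextromethorphan 5 μM, midazolam 2.5 μM; test compound 10 μM; 37 °C, 5 min preincubation plus 15 min with NADPH system.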

CYP1A2 = target: T2, CYP1A2 (Homo sapiens, UniProt P05177); experiment: as above; format: in vitro ADME; settings: 10 μM compound, human liver microsomes 0.25 mg/mL, substrate phenacetin, 15 minutes
T2 construct: human liver microsomes (0.25 mg/mL); from tissue; host or cells: human liver microsomes
T2 sequence (P05177 1-516): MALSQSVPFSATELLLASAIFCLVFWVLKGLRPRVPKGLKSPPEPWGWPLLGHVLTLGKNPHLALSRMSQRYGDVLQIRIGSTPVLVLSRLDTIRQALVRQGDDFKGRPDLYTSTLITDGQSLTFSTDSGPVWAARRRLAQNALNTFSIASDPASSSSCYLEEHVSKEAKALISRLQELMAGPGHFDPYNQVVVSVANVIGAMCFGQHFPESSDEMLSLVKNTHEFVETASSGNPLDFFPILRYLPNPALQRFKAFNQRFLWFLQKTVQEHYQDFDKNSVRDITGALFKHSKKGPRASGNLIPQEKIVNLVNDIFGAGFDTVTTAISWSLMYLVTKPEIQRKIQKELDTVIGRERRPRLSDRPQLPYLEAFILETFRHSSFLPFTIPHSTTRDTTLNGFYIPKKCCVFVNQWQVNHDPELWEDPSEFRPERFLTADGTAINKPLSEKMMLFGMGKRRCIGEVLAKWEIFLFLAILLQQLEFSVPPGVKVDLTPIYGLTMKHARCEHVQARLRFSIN
How it was run: (§1)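 Cocktail inhibition: HLM 0.25 mg/mL, 0.1 M PO4 pH 7.4, 37 °C; 5 min preinc., then 15 min + NADPH regen.; cpd 10 μM; probes phenacetin/diclofenac/S-mephenytoin/dextromethorphan/midazolam at 50/10/100/5/2.5 μM; LC-MS/MS MRM; % remaining activity vs no-compound control.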

CYP2C9 = target: T3, CYP2C9 (Homo sapiens, UniProt P11712); experiment: as above; format: in vitro ADME; settings: 10 μM compound, human liver microsomes 0.25 mg/mL, substrate diclofenac, 15 minutes
T3 construct: human liver microsomes (0.25 mg/mL); from tissue; host or cells: human liver microsomes
How it was run: as §1

CYP2C19 = target: T4, CYP2C19 (Homo sapiens, UniProt P33261); experiment: as above; format: in vitro ADME; settings: 10 μM compound, human liver microsomes 0.25 mg/mL, substrate S-mephenytoin, 15 minutes
T4 construct: human liver microsomes (0.25 mg/mL); from tissue; host or cells: human liver microsomes
How it was run: as §1

[1] = Liver microsome stability; format: in vitro ADME; settings: 1 μM compound, 37° C., 30 minutes, NADPH; for Dog (%) amount of substrate remaining after the reaction: dog liver microsomes 0.25 mg/mL; for Human (%) amount of substrate remaining after the reaction: human liver microsomes 0.25 mg/mL; for Mouse (%) amount of substrate remaining after the reaction: mouse liver microsomes 0.25 mg/mL; for Rat (%) amount of substrate remaining after the reaction: rat liver microsomes 0.25 mg/mL
Procedure: The stability of liver microsomes due to the compounds prepared according to Examples 1 to 57 was confirmed. Specifically, four types of liver microsomes (human, dog, rat, and mouse, each 0.25 mg/mL), a 0.1 M phosphate buffer solution (pH 7.4), and each of the compounds at a concentration of 1 μM were mixed and pre-cultured at 37° C. for 5 minutes and further cultured at 37° C. for 30 minutes together with an NADPH generation system solution added thereto. Thereafter, the reaction was terminated by adding an acetonitrile solution containing an internal standard material (chloropropamide) and centrifuged for 5 minutes (14,000 rpm, 4° C.), and then a supernatant was injected into an LC-MS/MS system for analysis of substrate drugs to thereby evaluate metabolic stability due to 8 types of compounds.
The amount of the substrate remaining after the reaction was analyzed using the Shimadzu Nexera XR system and TSQ Vantage (Thermo). In an HPLC column, Kinetex XB-C18 (2.1 mm×100 mm, particle size of 2.6 μm; Phenomenex, USA) was used, and mobile phases were (A) distilled water containing 0.1% formic acid and (B) acetonitrile containing 0.1% formic acid. Analyst software (version 1.6.3) and Xcalibur (version 1.6.1) were used for data analysis.

T4 sequence (P33261 whole entry): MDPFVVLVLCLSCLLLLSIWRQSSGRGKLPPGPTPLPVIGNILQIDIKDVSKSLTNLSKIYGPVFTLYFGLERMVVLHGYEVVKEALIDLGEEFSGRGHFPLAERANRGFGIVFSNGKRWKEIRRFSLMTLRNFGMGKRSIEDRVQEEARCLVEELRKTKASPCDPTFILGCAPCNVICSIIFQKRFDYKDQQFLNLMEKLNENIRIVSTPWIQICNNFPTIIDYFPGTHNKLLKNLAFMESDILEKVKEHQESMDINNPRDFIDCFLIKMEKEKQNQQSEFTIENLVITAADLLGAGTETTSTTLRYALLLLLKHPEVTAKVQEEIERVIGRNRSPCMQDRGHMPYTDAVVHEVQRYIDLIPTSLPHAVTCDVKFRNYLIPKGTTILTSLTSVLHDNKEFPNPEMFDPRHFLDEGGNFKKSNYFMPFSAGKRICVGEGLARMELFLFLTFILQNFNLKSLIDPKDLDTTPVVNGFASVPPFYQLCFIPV
T3 sequence (P11712 whole entry): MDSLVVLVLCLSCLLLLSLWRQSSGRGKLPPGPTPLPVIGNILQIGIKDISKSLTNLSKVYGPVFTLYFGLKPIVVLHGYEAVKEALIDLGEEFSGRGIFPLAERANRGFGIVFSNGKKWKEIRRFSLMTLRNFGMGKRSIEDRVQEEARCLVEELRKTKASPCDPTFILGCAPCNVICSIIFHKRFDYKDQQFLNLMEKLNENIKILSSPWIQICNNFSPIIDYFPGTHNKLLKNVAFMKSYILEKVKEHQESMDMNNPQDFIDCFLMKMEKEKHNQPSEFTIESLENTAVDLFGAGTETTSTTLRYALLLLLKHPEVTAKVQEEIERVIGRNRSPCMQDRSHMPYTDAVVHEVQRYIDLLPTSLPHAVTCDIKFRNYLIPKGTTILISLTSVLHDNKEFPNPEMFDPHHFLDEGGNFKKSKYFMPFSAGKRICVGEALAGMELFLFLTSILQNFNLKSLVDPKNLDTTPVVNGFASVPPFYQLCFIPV
T1 sequence (P08684 whole entry): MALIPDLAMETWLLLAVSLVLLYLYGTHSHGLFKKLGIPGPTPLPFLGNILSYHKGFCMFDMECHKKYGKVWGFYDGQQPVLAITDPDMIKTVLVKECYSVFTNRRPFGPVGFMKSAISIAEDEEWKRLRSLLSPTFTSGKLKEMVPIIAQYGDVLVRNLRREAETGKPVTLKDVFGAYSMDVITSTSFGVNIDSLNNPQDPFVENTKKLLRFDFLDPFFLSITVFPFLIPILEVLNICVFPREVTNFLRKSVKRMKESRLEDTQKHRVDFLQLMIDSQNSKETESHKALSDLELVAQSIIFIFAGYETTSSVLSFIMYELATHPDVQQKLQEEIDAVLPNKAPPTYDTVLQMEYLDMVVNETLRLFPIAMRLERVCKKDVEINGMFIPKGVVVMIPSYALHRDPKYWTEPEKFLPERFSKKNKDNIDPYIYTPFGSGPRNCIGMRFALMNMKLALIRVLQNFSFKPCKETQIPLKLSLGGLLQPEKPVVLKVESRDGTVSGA

Structure (SMILES) | Cell viability (% @10 μM) (Tau-BiFC cells) [%] | CYP3A4 coenzyme activity (%) with respect to control group not treated (CYP3A4) [%] | CYP1A2 coenzyme activity (%) with respect to control group not treated (CYP1A2) [%] | CYP2C9 coenzyme activity (%) with respect to control group not treated (CYP2C9) [%] | CYP2C19 coenzyme activity (%) with respect to control group not treated (CYP2C19) [%] | Dog (%) amount of substrate remaining after the reaction [1] [%] | Human (%) amount of substrate remaining after the reaction [1] [%] | Mouse (%) amount of substrate remaining after the reaction [1] [%] | Rat (%) amount of substrate remaining after the reaction [1] [%]
CC(C)n1c(=O)n(C(C)C)c2cc(NN=C(C#N)C#N)ccc21 [Compound 23, (1,3-diisopropyl-2-oxo-2,3-dihydro-1H-benzo[d]imidazol-5-yl)carbonohydrazonoyl dicyanide] | 117 | 79.6 | 83.2 | 46.4 | 69.7 | 86.1 | 83.1 | 72.4 | 77.7
N#CC(C#N)=NNc1cccc2c(=O)[nH]ccc12 [Compound 4, (1-oxo-1,2-dihydroisoquinolin-5-yl)carbonohydrazonoyl dicyanide] | 99.3 | 81.6 | 85.3 | 59.3 | 89.7 | >100 | >100 | >100 | 94.5
Cn1c(=O)n(C(F)F)c2cc(NN=C(C#N)C#N)ccc21 [Compound 37, (3-(difluoromethyl)-1-methyl-2-oxo-2,3-dihydro-1H-benzo[d]imidazol-5-yl)carbonohydrazonoyl dicyanide] | 121 | 96.7 | 64.6 | 29.2 | 90.7 |  | 84.9 | 75.7 | 58.5
COc1cc(NN=C(C#N)C#N)cc2c1n(C)c(=O)n2C [Compound 33, (7-methoxy-1,3-dimethyl-2-oxo-2,3-dihydro-1H-benzo[d]imidazol-5-yl)carbonohydrazonoyl dicyanide] | 114 | 97.6 | 37.8 | 69.9 | >100 |  | 93.2 | 78.7 | 85.5
N#CC(C#N)=NNc1ccc2c(c1)oc(=O)n2C(F)F [Compound 21, (3-(difluoromethyl)-2-oxo-2,3-dihydrobenzo[d]oxazol-6-yl)carbonohydrazonoyl dicyanide] | 135 | 90.4 | 79.6 | 64.4 | 83.7 | 72.1 | 73.9 | 71.8 | 79.8
Cc1cc2c(NN=C(C#N)C#N)cccc2c(=O)n1C [Compound 7, (2,3-dimethyl-1-oxo-1,2-dihydroisoquinolin-5-yl)carbonohydrazonoyl dicyanide] | 101.9 | 72 | 33.2 | 29.8 | 65.1 | 95.7 | 96 | 93.3 | 89.7
CCn1c(=O)n(C)c2ccc(NN=C(C#N)C#N)cc21 [Compound 35, (3-ethyl-1-methyl-2-oxo-2,3-dihydro-1H-benzo[d]imidazol-5-yl)carbonohydrazonoyl dicyanide] | 130 | >100 | 93.1 | 72.5 | 100 |  | 98.7 | 87.1 | 86
CC(C)n1c(=O)n(C(C)C)c2ncc(NN=C(C#N)C#N)cc21 [Compound 34, (1,3-diisopropyl-2-oxo-2,3-dihydro-1H-imidazo[4,5-b]pyridin-6-yl)carbonohydrazonoyl dicyanide] | 120 | 90.2 | >100 | 41.9 | 88.8 |  | >100 | 86.6 | 57.5
Cn1ccc2ccc(NN=C(C#N)C#N)cc2c1=O [Compound 2, (2-methyl-1-oxo-1,2-dihydroisoquinolin-7-yl)carbonohydrazonoyl dicyanide] | 57.5 | 89 | 43.5 | 77.9 | 79.2 | 2.5 | 27 | 63.4 | 88
Cn1c(=O)n(C)c2c(Cl)cc(NN=C(C#N)C#N)cc21 [Compound 11, (7-chloro-1,3-dimethyl-2-oxo-2,3-dihydro-1H-benzo[d]imidazol-5-yl)carbonohydrazonoyl dicyanide] | 142.3 | >100 | 73.7 | 45.8 | 88.4 | 63.1 | 96.1 | 63.9 | 82.8
